The values below come from patent US20260242390A1, “TOTAL SYNTHESES OF PORTIMINE A AND ANALOGUES THEREOF AS SMALL MOLECULE MODULATORS OF NMD3” (priority 2023, published 2026).

The structures appear in SMILES notation. Entries after “also recorded” stand apart in the source; their conditions may differ. Like-named read-outs stand apart in the source and are kept apart here.

One test relates to Jurkat cells. The experiment in a line: Cell viability / toxicity in Jurkat cells. To be noted: for IC50: Homo sapiens, read-out: IC50 to Jurkat cells; for cell toxicity in leukemia (Jurkat) cancer cell line: 36-hour treatment; for toxicity to Jurkat cells: pM-nM concentration range (0.23 pM to 1 uM), 12 hr. The format is cell-based, human. An excerpt: FIG. 1. Portimine A is non-toxic to primary human PBMCs. Portimine A and its functional analogs show stereo-selective acute toxicity in cancer cells. […] (B) Structure of portimine related analogs: phenyl-portimine A (Ph-PA, 36) and epi-portimine A (ePA, 38). Structure of fully functionalized portimine A-based epimeric probe pair: portimine A-diazirine-alkyne (PA-DA, 35-2) and epi-portimine A-diazirine-alkyne (ePA-DA, 35-1). (C) Cell viability analysis of portimine A and analogs. […] All presented data as mean of biological replicated experiments (n=3). […]
Structurally related negative control ePA and PB are non-toxic in all cell types in the current concentrate range. PBMCs (25k per well), Jurkat (10k per well). […]
• 1) Portimine A and its functional analogs show stereo-selective acute toxicity in cancer cells (FIG. 1). […] (B) Structure of portimine related analogs: phenyl-portimine A (Ph-PA, 36) and epi-portimine A (ePA, 38). Structure of fully functionalized portimine A-based epimeric probe pair: portimine A-diazirine-alkyne (PA-DA, 35-2) and epi-portimine A-diazirine-alkyne (ePA-DA, 35-1). (C) Cell viability analysis of portimine A and analogs. […] All presented data as mean of biological replicated experiments (n=3). […] Structurally related negative control ePA and PB are non-toxic in all cell types in the current concentrate range. PBMCs (25k per well), Jurkat (10k per well). […] Cell cycle analysis in Jurkat cells (FIG. 2). […] (A) PA and Ph-PA show less toxic to healthy PBMCs compared to Jurkat cells. […] (B) Immunoblot of caspase-3 in Jurkat and PBMCs with indicated conditions. […] (A) Pharmacokinetic studies of mouse intraperitoneal (i.p.) and oral (p.o.) administration for portimine (n=3). […] Impact of PA [0.3 or 1 mg/kg intraperitoneally] on MC38 tumor growth in WT mice (n=6). (C) Kaplan-Myer survival curve of WT MC38 tumor-bearing mice (n=6) after treatment with PA as described in (D). Mice were euthanized when tumor area exceeded 2000 mm^3. Statistical analysis was performed using ANOVA analysis followed by multiple comparisons test, * p≤0.05. Treatment condition: Jurkat (60 M per condition); PA-DA/ePA-DA concentration: 0.5 uM, PA or ePA: 5 uM; Incubate with probe with or without competitors (PA, ePA) for 30 min; UV irradiated for 20 min. (0.5 uM PA-DA add a no-UV condition), Standard pulldown & biotin-enrichment and western blot analysis (Elute condition: 2× sample buffer+500 uM biotin, boil for 20 mins); Primary antibody NMD3 (ProteinTech, 1:150), Actin (BioRad, 1:10000). […] Chemical proteomic profiling with PA-DA in Jurkat cells (A, B, C, G) and HCC1806 cells (D, E, F, H) show NMD3 is the primary target candidate of portimine A. […] (I, J) Confirmation of PA-DA engagement of NMD3 in Jurkat and HCC1806 cells. […] Treatment condition: Jurkat (5M per well). Portimine A concentration: 2 nM-1000 nM; In total treat cell for 12 hours. […] Protein degradation of p53, Mcl1, Bid, Bim, Noxa can be rescued by MG132 or Epoxomicin. (B) NMD3 mRNA increased after PA treatment, but not ePA control compound. […] (A) Immunoblot showing reduced NMD3 levels in shNMD3 Jurkat and HeLa cells. […] Data represents mean±SD of biologically replicated experiments (n=3). […] Cell lysates were fractionated by sucrose gradient (5-50%) and each fraction were analyzed by western blot. eIF6 levels increase in 60S subunit fraction and decrease in ribosome-free fractions after PA treatment. RPS6, a 40S and polysome subunits marker, is decreased in polysome fractions after PA treatment. Results are representative of three independent experiments. […] Relative protein levels in each fraction were normalized to the peak fraction of the indicated protein from the DMSO cells and plotted. Data represents mean±SD of biologically replicated experiments (n=3). Statistical analysis was performed using multiple unpaired Student t-test. * p≤0.05; ** p≤0.01; *** p≤0.005; **** p≤0.0001. […]

The subject of a further test is HCC1806. The experiment in a line: Cell toxicity in HCC1806 cells. Format: cell-based, human. To be noted: 36-hour treatment.

By IC50 is commonly meant the concentration needed to halve the response being measured. Consider `CC1C[C@@H](O)C(=O)[C@H]2O[C@]3(CC[C@@H]1O3)CC(O)C1=NCC[C@@]13CCC(c1ccccc1)=C[C@H]23` (some centres unmarked) [Ph-PA, phenyl-portimine A], for which the half-maximal inhibitory concentration (IC50) in the test on Jurkat cells (after 12 hr, Jurkat 10k per well, 0.23 pM to 1 uM) was about 2 nM.
For `C=CC1=C[C@@H]2[C@@H]3OC4(CC[C@H](O4)C(C)C[C@@H](O)C3=O)CC(=O)C3=NCC[C@@]32CC1` (some centres unmarked) [PB, portimine B], the “cell toxicity in breast (HCC1806) cancer cell line” value with HCC1806 is on record as “minimal effects”. In the test on Jurkat cells, the “cell toxicity in leukemia (Jurkat) cancer cell line” value was “minimal effects” and the “toxicity to Jurkat cells” value is listed as “non-toxic; also recorded: non-toxicity”.
Regarding `C=CC1=C[C@@H]2[C@@H]3O[C@]4(CC[C@H](O4)C(C)C[C@@H](O)C3=O)CC(O)C3=NCC[C@@]32CC1` (some centres unmarked) [PA, portimine A], the IC50 with Jurkat cells (Jurkat, 12 h) is about 2 nM.
For `C=CC1=C[C@@H]2[C@@H]3O[C@]4(CC[C@H](O4)C(C)C[C@@H](O)C3=O)C[C@@H](O)C3=NCC[C@@]32CC1` (stereo partly drawn) [ePA, epi-portimine A], in the test on HCC1806, the “cell toxicity in breast (HCC1806) cancer cell line” value is listed as “minimal effects”. Moreover, in the test on Jurkat cells, the “cell toxicity in leukemia (Jurkat) cancer cell line” value was “minimal effects” and the “toxicity to Jurkat cells” value is “non-toxic; also recorded: non-toxicity”.
